Type in all cases: biochemical
Conditions in all cases: recombinant human kinase, 1 μM ATP

The target in test [1] is T1, IGF-1 R (Homo sapiens, UniProt P08069).
T1 construct: made in house; host or cells: Sf9 insect cells (baculovirus)
As to the kind of experiment: 33PanQinase protein kinase activity assay, IGF-1 R. As for the experimental part:
(§1) The effect of the farazanopyrazine derivatives was tested on recombinant, human protein kinases. All protein kinases were expressed in Sf9 insect cells as human recombinant GST-fusion proteins or as His-tagged proteins by means of the baculovirus expression system. Protein kinases were purified by affinity chromatography using either GSH-agarose or Ni-NTH-agarose. The purity and identity of each was checked by SDS-PAGE/silver staining and by western blot analysis with specific antibodies.
(§2) A proprietary protein kinase assay (^33 PanQinase® Activity Assay) was used for measuring the kinase activity. All kinase assays were performed in 96-well FlashPlates™ in a 50 μl reaction volume. The assay for all enzymes contained 60 mM HEPES-NaOH, pH 7.5, 3 mM MgCl2, 3 mM MnCl2, 3 μM Na-orthovanadate, 1.2 mM DTT, 50 μg/ml PEG20000 and 1 μM [γ-^33P]-ATP (approx. 5×10^5 cpm per well).
(§3) The reaction cocktails were incubated at 30° C. for 80 minutes. The reaction was stopped with 50 μl of 2% (v/v) H3PO4, plates were aspirated and washed two times with 200 μl of 0.9% (w/v) NaCl. Incorporation of 33Pi was determined with a microplate scintillation counter. All assays were performed with a BeckmanCoulter/Sagian robotic system.

Test [2] has as its target T2, VEGF-R2 (Homo sapiens, UniProt P35968).
T2 construct: made in house; host or cells: Sf9 insect cells (baculovirus)
As to the kind of experiment: 33PanQinase protein kinase activity assay, VEGF-R2. As for the experimental part:
as §1, §2, §3

The target of test [3] is T3, SRC kinase (Homo sapiens, UniProt P12931).
T3 construct: made in house; host or cells: Sf9 insect cells (baculovirus)
T3 sequence (P12931 whole entry): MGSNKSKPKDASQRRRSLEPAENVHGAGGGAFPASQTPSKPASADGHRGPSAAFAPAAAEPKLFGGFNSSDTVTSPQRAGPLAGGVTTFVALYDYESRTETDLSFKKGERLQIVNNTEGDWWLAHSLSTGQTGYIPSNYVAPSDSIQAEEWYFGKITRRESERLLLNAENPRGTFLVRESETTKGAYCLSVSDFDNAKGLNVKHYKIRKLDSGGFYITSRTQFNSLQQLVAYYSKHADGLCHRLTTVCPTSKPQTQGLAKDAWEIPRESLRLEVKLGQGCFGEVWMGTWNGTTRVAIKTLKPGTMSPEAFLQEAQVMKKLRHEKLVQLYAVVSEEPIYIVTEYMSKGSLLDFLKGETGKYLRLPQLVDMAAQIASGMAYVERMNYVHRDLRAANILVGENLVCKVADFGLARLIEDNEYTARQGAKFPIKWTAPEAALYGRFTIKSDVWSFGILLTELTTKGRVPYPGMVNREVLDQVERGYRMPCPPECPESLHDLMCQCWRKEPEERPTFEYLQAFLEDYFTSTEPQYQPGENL
As to the kind of experiment: 33PanQinase protein kinase activity assay, SRC. Here is the method:
as §1, §2, §3

Among the data in US20050143382A1 (4SC AG, priority 2003, published 2005) are IC50 values, retold here.

T2 sequence (P35968 20-1356): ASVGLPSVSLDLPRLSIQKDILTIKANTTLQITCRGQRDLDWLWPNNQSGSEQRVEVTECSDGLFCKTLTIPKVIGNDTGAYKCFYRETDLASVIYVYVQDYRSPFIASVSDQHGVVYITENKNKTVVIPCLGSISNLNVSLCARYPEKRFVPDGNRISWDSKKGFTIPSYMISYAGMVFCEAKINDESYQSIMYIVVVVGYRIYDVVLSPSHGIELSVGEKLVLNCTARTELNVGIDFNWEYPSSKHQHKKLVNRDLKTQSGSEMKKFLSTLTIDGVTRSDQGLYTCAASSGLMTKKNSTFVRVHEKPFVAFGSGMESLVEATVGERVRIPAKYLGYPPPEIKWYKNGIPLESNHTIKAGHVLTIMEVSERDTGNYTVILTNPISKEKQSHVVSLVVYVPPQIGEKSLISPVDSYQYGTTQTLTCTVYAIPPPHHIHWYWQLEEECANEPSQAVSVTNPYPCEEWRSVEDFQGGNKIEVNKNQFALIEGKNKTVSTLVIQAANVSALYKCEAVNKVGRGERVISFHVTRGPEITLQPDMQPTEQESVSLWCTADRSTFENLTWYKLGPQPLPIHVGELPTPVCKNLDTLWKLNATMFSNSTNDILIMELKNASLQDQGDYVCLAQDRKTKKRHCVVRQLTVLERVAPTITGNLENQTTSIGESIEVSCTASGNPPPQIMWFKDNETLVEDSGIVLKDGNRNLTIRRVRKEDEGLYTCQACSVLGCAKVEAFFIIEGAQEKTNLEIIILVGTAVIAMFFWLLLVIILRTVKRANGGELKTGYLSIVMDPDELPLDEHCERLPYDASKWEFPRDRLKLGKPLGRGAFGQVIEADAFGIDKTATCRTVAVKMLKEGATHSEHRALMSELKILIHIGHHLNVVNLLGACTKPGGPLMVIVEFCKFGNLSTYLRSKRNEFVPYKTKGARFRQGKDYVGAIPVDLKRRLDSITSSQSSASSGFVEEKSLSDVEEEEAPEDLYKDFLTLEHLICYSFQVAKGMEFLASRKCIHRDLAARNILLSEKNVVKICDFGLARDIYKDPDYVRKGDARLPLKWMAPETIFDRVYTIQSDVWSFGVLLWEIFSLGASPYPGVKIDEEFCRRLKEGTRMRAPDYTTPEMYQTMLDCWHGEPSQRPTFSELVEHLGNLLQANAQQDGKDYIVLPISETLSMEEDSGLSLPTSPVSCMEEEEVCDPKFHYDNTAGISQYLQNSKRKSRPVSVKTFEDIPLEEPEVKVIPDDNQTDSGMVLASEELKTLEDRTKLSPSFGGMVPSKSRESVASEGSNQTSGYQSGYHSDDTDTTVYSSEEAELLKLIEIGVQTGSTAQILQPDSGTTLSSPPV
T1 sequence (P08069 31-1367): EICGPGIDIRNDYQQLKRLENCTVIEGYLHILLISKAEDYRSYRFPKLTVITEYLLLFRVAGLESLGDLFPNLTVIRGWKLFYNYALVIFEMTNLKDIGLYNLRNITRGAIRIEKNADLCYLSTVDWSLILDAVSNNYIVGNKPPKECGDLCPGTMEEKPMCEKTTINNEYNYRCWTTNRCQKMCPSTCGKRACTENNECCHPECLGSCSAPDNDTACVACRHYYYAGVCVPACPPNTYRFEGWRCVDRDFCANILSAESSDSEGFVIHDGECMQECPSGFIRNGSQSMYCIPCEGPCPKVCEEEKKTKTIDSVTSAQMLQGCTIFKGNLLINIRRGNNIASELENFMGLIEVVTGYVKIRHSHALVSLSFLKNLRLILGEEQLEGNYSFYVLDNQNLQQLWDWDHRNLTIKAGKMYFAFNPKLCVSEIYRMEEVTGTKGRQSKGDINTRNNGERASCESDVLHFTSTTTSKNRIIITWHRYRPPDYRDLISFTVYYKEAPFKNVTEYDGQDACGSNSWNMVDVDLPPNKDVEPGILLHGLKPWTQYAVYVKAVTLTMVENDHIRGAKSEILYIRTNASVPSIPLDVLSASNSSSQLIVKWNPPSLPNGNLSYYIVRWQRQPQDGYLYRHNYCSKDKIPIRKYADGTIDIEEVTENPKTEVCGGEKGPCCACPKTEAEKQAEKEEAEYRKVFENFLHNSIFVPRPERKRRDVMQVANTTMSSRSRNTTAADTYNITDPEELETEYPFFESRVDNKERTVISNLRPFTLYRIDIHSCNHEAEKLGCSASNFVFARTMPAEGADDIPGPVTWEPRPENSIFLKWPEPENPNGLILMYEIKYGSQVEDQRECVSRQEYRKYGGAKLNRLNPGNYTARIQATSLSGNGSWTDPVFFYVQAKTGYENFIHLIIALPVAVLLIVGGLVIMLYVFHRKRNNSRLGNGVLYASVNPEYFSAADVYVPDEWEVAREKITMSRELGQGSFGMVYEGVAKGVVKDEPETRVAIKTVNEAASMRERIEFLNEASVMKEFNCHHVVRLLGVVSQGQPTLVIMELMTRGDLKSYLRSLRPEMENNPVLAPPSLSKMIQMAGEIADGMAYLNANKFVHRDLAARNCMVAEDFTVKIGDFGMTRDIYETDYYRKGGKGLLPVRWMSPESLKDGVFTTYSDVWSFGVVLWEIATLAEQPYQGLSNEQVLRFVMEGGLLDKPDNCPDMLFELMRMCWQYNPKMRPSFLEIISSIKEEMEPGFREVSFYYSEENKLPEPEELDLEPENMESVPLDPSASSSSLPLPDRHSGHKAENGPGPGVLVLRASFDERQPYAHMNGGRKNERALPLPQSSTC

As to `O=C(O)c1ccc(-c2ccc(C=NNc3nc4nonc4nc3Nc3ccc(F)c(Cl)c3)o2)cc1` [Example 179], the IC50 in test [1] was under 1 µM; in test [2] it was under 2 µM; in test [3] it was under 1 µM.
`O=[N+]([O-])c1cccc(-c2ccc(C=NNc3nc4nonc4nc3Nc3ccccc3)o2)c1` [Example 90, (6-{N′-[5-(3-Nitro-phenyl)-furan-2-ylmethylene]-hydrazino}-[1,2,5]oxadiazolo [3,4-b]pyrazin-5-yl)-phenyl-amine]: the IC50 in test [3] was under 1 µM.
As for `O=[N+]([O-])c1cccc(-c2ccc(C=NNc3nc4nonc4nc3Nc3cccc(Cl)c3)o2)c1` [Example 155, (3-Chloro-phenyl)-(6-{N′-[5-(3-nitro-phenyl)-furan-2-ylmethylene]-hydrazino}-[1,2,5]oxadiazolo[3,4-b]pyrazin-5-yl)-amine], the IC50 in test [1] is under 1 µM; in test [2] it was under 2 µM; in test [3] it was under 1 µM.
On to `Clc1ccc(Nc2nc3nonc3nc2NN=Cc2ccc(-c3ccccc3)o2)cc1Cl` [Example 195, (3,4-Dichloro-phenyl)-{6-[N′-(5-phenyl-furan-2-ylmethylene)-hydrazino]-[1,2,5]oxadiazolo[3,4-b]pyrazin-5-yl}-amine], for which the IC50 in test [3] is under 1 µM.
`Clc1ccc(Nc2nc3nonc3nc2NN=Cc2cc3ccccc3o2)cc1Cl` [Example 193, [6-(N′-Benzofuran-2-ylmethylene-hydrazino)-[1,2,5]oxadiazolo[3,4-b]pyrazin-5-yl]-(3,4-dichloro-phenyl)-amine]: the IC50 in test [1] is under 1 µM; in test [2] it was under 2 µM; in test [3], under 1 µM.
Turning to `O=[N+]([O-])c1cccc(-c2ccc(C=NNc3nc4nonc4nc3Nc3ccc(F)c(Cl)c3)o2)c1` [Example 174, (3-Chloro-4-fluoro-phenyl)-(6-{N′-[5-(3-nitro-phenyl)-furan-2-ylmethylene]-hydrazino}-[1,2,5]oxadiazolo[3,4-b]pyrazin-5-yl)-amine], the IC50 in test [1] was under 1 µM; in test [2], under 2 µM; in test [3], under 1 µM.
As to `COc1ccc(O)c(C=NNc2nc3nonc3nc2Nc2ccc(F)c(Cl)c2)c1` [Example 167], the 50% inhibitory concentration (IC50) in test [3] was under 1 µM.
For `COc1cccc(C=NNc2nc3nonc3nc2Nc2ccc(Cl)c(Cl)c2)c1O` [Example 192], the IC50 in test [1] is under 1 µM.
For `O=C(O)c1cccc(C=NNc2nc3nonc3nc2Nc2ccc(Cl)c(Cl)c2)c1` [Example 186], the IC50 in test [1] was under 1 µM; in test [2], under 2 µM; in test [3], under 1 µM.
Turning to `Clc1ccc(-c2ccc(C=NNc3nc4nonc4nc3Nc3ccc(Cl)c(Cl)c3)o2)cc1` [Example 200, (6-{N-[5-(4-Chloro-phenyl)-furan-2-ylmethylene]-hydrazino}-[1,2,5]-oxadiazolo[3,4-b]pyrazin-5-yl)-(3,4-dichloro-phenyl)-amine], the IC50 in test [1] is under 1 µM; in test [2], under 2 µM; in test [3], under 1 µM.
Take `Fc1ccc(Nc2nc3nonc3nc2NN=Cc2ccc(-c3ccc(Cl)cc3Cl)o2)cc1` [Example 15, (6-{N′-[5-(2,4-Dichloro-phenyl)-furan-2-ylmethylene]-hydrazino}-[1,2,5]oxadiazolo [3,4-b]pyrazin-5-yl)-(4-fluoro-phenyl)-amine]: the IC50 was under 2 µM in test [2] and under 1 µM in test [3].
Regarding `O=C(O)c1ccc(-c2ccc(C=NNc3nc4nonc4nc3Nc3ccc(F)cc3)o2)cc1` [Example 139], the IC50 in test [1] and in test [3] was under 1 µM throughout.
On to `C(=NNc1nc2nonc2nc1Nc1ccccc1)c1cc2ccccc2o1` [Example 88, [6-(N′-Benzofuran-2-ylmethylene-hydrazino)-(1,2,5]oxadiazolo[3,4-b]pyrazin-5-yl]-phenyl-amine], for which the IC50 in test [3] is under 1 µM.
For the molecule `Oc1c(Br)cc(Br)cc1C=NNc1nc2nonc2nc1Nc1cccc(Cl)c1` [Example 151], the IC50 in test [1] and in test [3] was under 1 µM in each case.
As for `Fc1ccc(Nc2nc3nonc3nc2NN=Cc2ccc(-c3ccccc3)o2)cc1Cl` [Example 175, (3-Chloro-4-fluoro-phenyl)-{6-[N′-(5-phenyl-furan-2-ylmethylene)-hydrazino]-[1,2,5]oxadiazolo [3,4-b]pyrazin-5-yl}-amine], the IC50 in test [1] and in test [3] was under 1 µM throughout.
Regarding `O=c1[nH]c2ccc(Nc3nc4nonc4nc3NN=Cc3cc(I)cc(I)c3OCc3ccc(Cl)cc3Cl)cc2[nH]1` [Example 55, 5-(6-{N′-[2-(2,4-Dichloro-benzyloxy)-3,5-diiodo-benzylidene]-hydrazino}-[1,2,5]oxadiazolo[3,4-b]pyrazin-5-ylamino)-1,3-dihydro-benzoimidazol-2-one], the IC50 in test [1] and in test [3] was under 1 µM throughout.
For the molecule `O=C(O)c1ccc(C=NNc2nc3nonc3nc2Nc2cccc(Cl)c2)cc1` [Example 143], in test [1], the IC50 is under 1 µM.
Consider `Oc1c(Br)cc(Cl)cc1C=NNc1nc2nonc2nc1Nc1ccc(Cl)c(Cl)c1` [Example 14], for which the IC50 is under 1 µM in test [1], under 2 µM in test [2] and under 1 µM in test [3].
For the molecule `O=[N+]([O-])c1cc(-c2ccc(C=NNc3nc4nonc4nc3Nc3cccc(C(F)(F)F)c3)o2)ccc1Cl` [Example 36, (6-{N-[5-(4-Chloro-3-nitro-phenyl)-furan-2-ylmethylene]-hydrazino}-[1,2,5]oxadiazolo [3,4-b]pyrazin-5-yl)-(3-trifluoromethyl-phenyl)-amine], the IC50 in test [1] and in test [3] was under 1 µM each time.
Regarding `Fc1ccc(Nc2nc3nonc3nc2NN=Cc2ccc(-c3ccc(Cl)cc3)o2)cc1Cl` [Example 180, (3-Chloro-4-fluoro-phenyl)-(6-{N′-[5-(4-chloro-phenyl)-furan-2-yl-methylene]-hydrazino}-[1,2,5]oxadiazolo [3,4-b]pyrazin-5-yl)-amine], the IC50 in test [1] was under 1 µM; in test [2], under 2 µM; in test [3], under 1 µM.
In the case of `Oc1c(I)cc(I)cc1C=NNc1nc2nonc2nc1Nc1cccc(Br)c1` [Example 35], the IC50 is under 1 µM in test [1], under 2 µM in test [2] and under 1 µM in test [3].
For `Cc1cccc(Nc2nc3nonc3nc2NN=Cc2ccc(-c3ccc(Cl)c(C(=O)O)c3)o2)c1C` [Example 2], the results for the IC50 in test [1], in test [2] and in test [3] were under 1 µM, under 2 µM and under 1 µM, respectively.
With `NC(=O)c1cccc(-c2ccc(C=NNc3nc4nonc4nc3Nc3ccc(F)c(Cl)c3)o2)c1` [Example 178], the values for the IC50 in test [1], in test [2] and in test [3] were under 1 µM, under 2 µM and under 1 µM, respectively.
For `O=C1Nc2ccccc2C1=NNc1nc2nonc2nc1Nc1ccc(Cl)c(Cl)c1` [Example 201, 3-{[6-(3,4-Dichloro-phenylamino)-[1,2,5]oxadiazolo [3,4-b]pyrazin-5-yl]-hydrazono}-1,3-dihydro-indol-2-one], the figures for the IC50 in test [1], in test [2] and in test [3] were under 1 µM, under 2 µM and under 1 µM, respectively.
Consider `Oc1c(Br)cc(Br)cc1C=NNc1nc2nonc2nc1Nc1ccc(Cl)cc1` [Example 30], for which the IC50 in test [1] and in test [3] was under 1 µM throughout.
Turning to `CCOC(=O)c1ccc(Nc2nc3nonc3nc2NN=Cc2cccc([N+](=O)[O-])c2O)cc1` [Example 37, 4-{6-[N′-(2-Hydroxy-3-nitro-benzylidene)-hydrazino]-[1,2,5]oxadiazolo[3,4-b]pyrazin-5-ylamino}-benzoic Acid Ethyl Ester], in test [3], the IC50 is under 1 µM.
For the molecule `O=[N+]([O-])c1cccc(-c2ccc(C=NNc3nc4nonc4nc3Nc3ccc(F)cc3)o2)c1` [Example 135, (4-Fluoro-phenyl)-(6-{N′-[5-(3-nitro-phenyl)-furan-2-ylmethylene]-hydrazino}-[1,2,5]oxadiazolo [3,4-b]pyrazin-5-yl)-amine], the IC50 in test [1] and in test [3] was under 1 µM each time.
For `Clc1ccc(Nc2nc3nonc3nc2NN=Cc2ccco2)cc1Cl` [Example 197, (3,4-Dichloro-phenyl)-[6-(N′-furan-2-ylmethylene-hydrazino)-[1,2,5]-oxadiazolo[3,4-b]pyrazin-5-yl]-amine], the IC50 in test [1] and in test [3] was under 1 µM each time.
Take `Cc1ccc(Nc2nc3nonc3nc2NN=Cc2ccc(-c3cc(C)cc([N+](=O)[O-])c3C)o2)cc1` [Example 33, (6-[N′-[5-(2,5-Dimethyl-3-nitro-phenyl)-furan-2-ylmethylene]-hydrazino}-[1,2,5]oxadiazolo[3,4-b]pyrazin-5-yl)-p-tolyl-amine]: in test [3], the IC50 is under 1 µM.
With `O=[N+]([O-])c1ccc(-c2ccc(C=NNc3nc4nonc4nc3Nc3ccc(F)cc3)o2)cc1` [Example 39, (4-Fluoro-phenyl)-(6-{N′-[5-(4-nitro-phenyl)-furan-2-ylmethylene]-hydrazino}-[1,2,5]oxadiazolo[3,4-b]pyrazin-5-yl)-amine], the IC50 in test [1] and in test [3] was under 1 µM each time.
`Cc1cc(C)c([N+](=O)[O-])cc1-c1ccc(C=NNc2nc3nonc3nc2Nc2ccccc2F)o1` [Example 29, (6-{N′-[5-(2,4-Dimethyl-5-nitro-phenyl)-furan-2-ylmethylene]-hydrazino}-[1,2,5]oxadiazolo[3,4-b]pyrazin-5-yl)-(2-fluoro-phenyl)-amine]: the IC50 in test [1] and in test [3] was under 1 µM in each case.
